25 compounds from ChEMBL document CHEMBL1697731, “Cheminformatics analysis of assertions mined from literature that describe drug-induced liver injury in different species” (Chem Res Toxicol, 2010) can be followed below.

Data set [1] deals with Hepatotoxicity. As to the kind of experiment: Literature-mined compound from Fourches et al multi-species drug-induced liver injury (DILI) dataset, effect in non-rodents.
The subject of data set [2] is Hepatotoxicity. As to the kind of experiment: Literature-mined compound from Fourches et al multi-species drug-induced liver injury (DILI) dataset, effect in rodents. Particulars: rodentia.
For data set [3], the system named is Hepatotoxicity. Kind of data set: Literature-mined compound from Fourches et al multi-species drug-induced liver injury (DILI) dataset, effect in humans. Conditions: human.

For `Nc1nc2c(c(=O)[nH]1)N(C=O)C(CNc1ccc(C(=O)N[C@@H](CCC(=O)O)C(=O)O)cc1)CN2` (stereo not given in full) [LEUCOVORIN], the values for the Hepatotoxicity entry with Hepatotoxicity [1], in the data set with Hepatotoxicity [2] and in the data set on Hepatotoxicity [3] were “no drug-induced liver injury reported”, “drug-induced liver injury reported” and “drug-induced liver injury reported”, respectively.

With `Cc1cn([C@H]2C=C[C@@H](CO)O2)c(=O)[nH]c1=O` [STAVUDINE], the figures for the Hepatotoxicity entry with Hepatotoxicity [1], in the data set on Hepatotoxicity [2] and in the data set with Hepatotoxicity [3] were “no drug-induced liver injury reported”, “drug-induced liver injury reported” and “drug-induced liver injury reported”, respectively.

For `C#CCN(C)[C@H](C)Cc1ccccc1` [SELEGILINE], the figures for the Hepatotoxicity result with Hepatotoxicity [1], in the data set with Hepatotoxicity [2] and in the data set with Hepatotoxicity [3] were “no drug-induced liver injury reported”, “no drug-induced liver injury reported” and “drug-induced liver injury reported”, respectively.

On to `COC(=O)Nc1nc2ccc(C(=O)c3ccccc3)cc2[nH]1` [MEBENDAZOLE], for which the Hepatotoxicity entry is listed as “drug-induced liver injury reported” with Hepatotoxicity [1], “no drug-induced liver injury reported” in the data set on Hepatotoxicity [2] and “drug-induced liver injury reported” in the data set on Hepatotoxicity [3].

In the case of `C=C1/C(=C\C=C2/CCC[C@]3(C)[C@@H]([C@H](C)/C=C/C=C/C(O)(CC)CC)CC[C@@H]23)C[C@@H](O)C[C@@H]1O` [SEOCALCITOL], the Hepatotoxicity result is listed as “no drug-induced liver injury reported” with Hepatotoxicity [1], “no drug-induced liver injury reported” with Hepatotoxicity [2] and “drug-induced liver injury reported” in the data set with Hepatotoxicity [3].

Consider `CC[C@@H](C(N)=O)N1CCCC1=O`, for which the Hepatotoxicity entry is listed as “no drug-induced liver injury reported” in the data set on Hepatotoxicity [1], “no drug-induced liver injury reported” in the data set on Hepatotoxicity [2] and “drug-induced liver injury reported” in the data set on Hepatotoxicity [3].

In the case of `CC(CCc1ccc(O)cc1)NCCc1ccc(O)c(O)c1` (stereo not given) [DOBUTAMINE], the results for the Hepatotoxicity result with Hepatotoxicity [1], in the data set on Hepatotoxicity [2] and in the data set with Hepatotoxicity [3] were “drug-induced liver injury reported”, “no drug-induced liver injury reported” and “drug-induced liver injury reported”, respectively.

Turning to `COc1ccc(C(=O)c2ccccc2)c(O)c1` [OXYBENZONE], the Hepatotoxicity result in the data set on Hepatotoxicity [1] is listed as “no drug-induced liver injury reported”; in the data set with Hepatotoxicity [2] it was “drug-induced liver injury reported”; with Hepatotoxicity [3] it was “no drug-induced liver injury reported”.

`Clc1ccc(COC(Cn2ccnc2)c2ccc(Cl)cc2Cl)c(Cl)c1` (stereo not given) [MICONAZOLE]: the Hepatotoxicity result is recorded as “no drug-induced liver injury reported” in the data set with Hepatotoxicity [1], “drug-induced liver injury reported” in the data set on Hepatotoxicity [2] and “drug-induced liver injury reported” with Hepatotoxicity [3].

In the case of `C[C@]12CCC(=O)C=C1CC[C@@H]1[C@@H]2CC[C@@]2(C)[C@H]1CC[C@]2(C)O` (stereo in doubt; form 1) [METHYLTESTOSTERONE], the Hepatotoxicity entry with Hepatotoxicity [1] is “no drug-induced liver injury reported”; in the data set with Hepatotoxicity [2] it was “drug-induced liver injury reported”; with Hepatotoxicity [3], “no drug-induced liver injury reported”.

Take `CCc1nn(CCCN2CCN(c3cccc(Cl)c3)CC2)c(=O)n1CCOc1ccccc1` [NEFAZODONE]: the Hepatotoxicity result with Hepatotoxicity [1] was “no drug-induced liver injury reported”; in the data set on Hepatotoxicity [2] it was “no drug-induced liver injury reported”; with Hepatotoxicity [3], “drug-induced liver injury reported”.

Turning to `NC(=O)N1c2ccccc2CC(=O)c2ccccc21` [OXCARBAZEPINE], the values for the Hepatotoxicity result with Hepatotoxicity [1], in the data set on Hepatotoxicity [2] and in the data set with Hepatotoxicity [3] were “no drug-induced liver injury reported”, “no drug-induced liver injury reported” and “drug-induced liver injury reported”, respectively.

As to `CC(C(=O)O)c1ccc(N2CC=CC2)c(Cl)c1` (stereo not given) [PIRPROFEN], the Hepatotoxicity entry in the data set on Hepatotoxicity [1] is reported as “no drug-induced liver injury reported”; with Hepatotoxicity [2], “drug-induced liver injury reported”; in the data set with Hepatotoxicity [3] it was “drug-induced liver injury reported”.

With `CC(C)(S)[C@@H](N)C(=O)O` [PENICILLAMINE], the Hepatotoxicity result in the data set with Hepatotoxicity [1], in the data set on Hepatotoxicity [2] and in the data set with Hepatotoxicity [3] was “drug-induced liver injury reported” in each case.

Take `CCN(CC)C(=O)c1cccc(C)c1` [DIETHYLTOLUAMIDE]: the Hepatotoxicity entry with Hepatotoxicity [1] was “no drug-induced liver injury reported”; in the data set with Hepatotoxicity [2], “drug-induced liver injury reported”; in the data set on Hepatotoxicity [3] it was “no drug-induced liver injury reported”.

`O=C(O)Cc1cc(I)c(Oc2ccc(O)c(I)c2)c(I)c1` [TIRATRICOL]: the results for the Hepatotoxicity result in the data set on Hepatotoxicity [1], with Hepatotoxicity [2] and in the data set with Hepatotoxicity [3] were “no drug-induced liver injury reported”, “drug-induced liver injury reported” and “no drug-induced liver injury reported”, respectively.

Take `c1ccoc1` [FURAN]: the Hepatotoxicity result was “no drug-induced liver injury reported” in the data set with Hepatotoxicity [1], “drug-induced liver injury reported” in the data set with Hepatotoxicity [2] and “no drug-induced liver injury reported” in the data set on Hepatotoxicity [3].

Consider `Nc1nc(O)c2ncn(COC(CO)CO)c2n1` [GANCICLOVIR], for which the Hepatotoxicity entry is given as “no drug-induced liver injury reported” with Hepatotoxicity [1], “no drug-induced liver injury reported” in the data set on Hepatotoxicity [2] and “drug-induced liver injury reported” with Hepatotoxicity [3].

Turning to CHOLESTYRAMINE, the Hepatotoxicity entry with Hepatotoxicity [1] is recorded as “no drug-induced liver injury reported”; with Hepatotoxicity [2], “drug-induced liver injury reported”; in the data set on Hepatotoxicity [3], “drug-induced liver injury reported”.

With `CS(=O)(=O)OCCCCOS(C)(=O)=O` [BUSULFAN], the Hepatotoxicity result in the data set on Hepatotoxicity [1] was “no drug-induced liver injury reported”; with Hepatotoxicity [2], “drug-induced liver injury reported”; in the data set on Hepatotoxicity [3], “drug-induced liver injury reported”.

In the case of `Cc1cnc(NC(=O)C2=C(O)c3ccccc3S(=O)(=O)N2C)s1` [MELOXICAM], the Hepatotoxicity entry with Hepatotoxicity [1] is “no drug-induced liver injury reported”; in the data set on Hepatotoxicity [2], “no drug-induced liver injury reported”; in the data set with Hepatotoxicity [3], “drug-induced liver injury reported”.

With `Cc1cccc(C(C)c2cnc[nH]2)c1C` (stereo not given) [MEDETOMIDINE], the Hepatotoxicity result in the data set on Hepatotoxicity [1] (Liver) is on record as “drug-induced liver injury reported”; in the data set on Hepatotoxicity [2] (Liver), “no drug-induced liver injury reported”; with Hepatotoxicity [3] (Liver) it was “drug-induced liver injury reported”.

Regarding IVERMECTIN, the values for the Hepatotoxicity entry with Hepatotoxicity [1], in the data set with Hepatotoxicity [2] and with Hepatotoxicity [3] were “no drug-induced liver injury reported”, “no drug-induced liver injury reported” and “drug-induced liver injury reported”, respectively.

Turning to `O=C(O)CCCc1ccc(N(CCCl)CCCl)cc1` [CHLORAMBUCIL], the figures for the Hepatotoxicity entry in the data set on Hepatotoxicity [1], with Hepatotoxicity [2] and with Hepatotoxicity [3] were “no drug-induced liver injury reported”, “drug-induced liver injury reported” and “drug-induced liver injury reported”, respectively.

Consider `CN1C(=O)[C@@H](NC(=O)c2cc3ccccc3[nH]2)N=C(c2ccccc2)c2ccccc21` [DEVAZEPIDE], for which the Hepatotoxicity result is given as “no drug-induced liver injury reported” with Hepatotoxicity [1], “drug-induced liver injury reported” in the data set with Hepatotoxicity [2] and “no drug-induced liver injury reported” with Hepatotoxicity [3].
